Source: patent US8124610B2, “Sodium channel inhibitors” (Icagen Inc., priority 2007, dated 2012)

What was measured:
[1] = biological target: T1, hSCN3A (Homo sapiens, UniProt Q9NY46); assay: Whole-cell patch-clamp electrophysiology (conventional or PatchXpress), HEK cells expressing hSCN3A, estimated IC-50; format: cell-based; conditions: estimated IC-50, HEK cells expressing hSCN3A; class symbols or bounds; read-out: SCN3A EIC-50
T1 construct: expressed in transfected cells
Summary of the method: (§1)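 Stably transfected HEK cells recorded by whole-cell voltage clamp (manual or PatchXpress) at 22–24 °C in pH 7.4 HEPES-buffered extracellular solution. Cells held at the empirically determined inactivation V1/2 after an 8 s prepulse, then stepped to 0 mV for 20 ms; % inhibition from current amplitude before vs after compound.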

[2] = biological target: T2, hSCN9A (Homo sapiens, UniProt Q15858); assay: Whole-cell patch-clamp electrophysiology (conventional or PatchXpress), HEK cells expressing hSCN9A, estimated IC-50; format: cell-based; conditions: estimated IC-50, HEK cells expressing hSCN9A; class symbols or bounds; read-out: SCN9A EIC-50
T2 construct: expressed in transfected cells
Summary of the method: as §1

T1 sequence (Q9NY46 whole entry): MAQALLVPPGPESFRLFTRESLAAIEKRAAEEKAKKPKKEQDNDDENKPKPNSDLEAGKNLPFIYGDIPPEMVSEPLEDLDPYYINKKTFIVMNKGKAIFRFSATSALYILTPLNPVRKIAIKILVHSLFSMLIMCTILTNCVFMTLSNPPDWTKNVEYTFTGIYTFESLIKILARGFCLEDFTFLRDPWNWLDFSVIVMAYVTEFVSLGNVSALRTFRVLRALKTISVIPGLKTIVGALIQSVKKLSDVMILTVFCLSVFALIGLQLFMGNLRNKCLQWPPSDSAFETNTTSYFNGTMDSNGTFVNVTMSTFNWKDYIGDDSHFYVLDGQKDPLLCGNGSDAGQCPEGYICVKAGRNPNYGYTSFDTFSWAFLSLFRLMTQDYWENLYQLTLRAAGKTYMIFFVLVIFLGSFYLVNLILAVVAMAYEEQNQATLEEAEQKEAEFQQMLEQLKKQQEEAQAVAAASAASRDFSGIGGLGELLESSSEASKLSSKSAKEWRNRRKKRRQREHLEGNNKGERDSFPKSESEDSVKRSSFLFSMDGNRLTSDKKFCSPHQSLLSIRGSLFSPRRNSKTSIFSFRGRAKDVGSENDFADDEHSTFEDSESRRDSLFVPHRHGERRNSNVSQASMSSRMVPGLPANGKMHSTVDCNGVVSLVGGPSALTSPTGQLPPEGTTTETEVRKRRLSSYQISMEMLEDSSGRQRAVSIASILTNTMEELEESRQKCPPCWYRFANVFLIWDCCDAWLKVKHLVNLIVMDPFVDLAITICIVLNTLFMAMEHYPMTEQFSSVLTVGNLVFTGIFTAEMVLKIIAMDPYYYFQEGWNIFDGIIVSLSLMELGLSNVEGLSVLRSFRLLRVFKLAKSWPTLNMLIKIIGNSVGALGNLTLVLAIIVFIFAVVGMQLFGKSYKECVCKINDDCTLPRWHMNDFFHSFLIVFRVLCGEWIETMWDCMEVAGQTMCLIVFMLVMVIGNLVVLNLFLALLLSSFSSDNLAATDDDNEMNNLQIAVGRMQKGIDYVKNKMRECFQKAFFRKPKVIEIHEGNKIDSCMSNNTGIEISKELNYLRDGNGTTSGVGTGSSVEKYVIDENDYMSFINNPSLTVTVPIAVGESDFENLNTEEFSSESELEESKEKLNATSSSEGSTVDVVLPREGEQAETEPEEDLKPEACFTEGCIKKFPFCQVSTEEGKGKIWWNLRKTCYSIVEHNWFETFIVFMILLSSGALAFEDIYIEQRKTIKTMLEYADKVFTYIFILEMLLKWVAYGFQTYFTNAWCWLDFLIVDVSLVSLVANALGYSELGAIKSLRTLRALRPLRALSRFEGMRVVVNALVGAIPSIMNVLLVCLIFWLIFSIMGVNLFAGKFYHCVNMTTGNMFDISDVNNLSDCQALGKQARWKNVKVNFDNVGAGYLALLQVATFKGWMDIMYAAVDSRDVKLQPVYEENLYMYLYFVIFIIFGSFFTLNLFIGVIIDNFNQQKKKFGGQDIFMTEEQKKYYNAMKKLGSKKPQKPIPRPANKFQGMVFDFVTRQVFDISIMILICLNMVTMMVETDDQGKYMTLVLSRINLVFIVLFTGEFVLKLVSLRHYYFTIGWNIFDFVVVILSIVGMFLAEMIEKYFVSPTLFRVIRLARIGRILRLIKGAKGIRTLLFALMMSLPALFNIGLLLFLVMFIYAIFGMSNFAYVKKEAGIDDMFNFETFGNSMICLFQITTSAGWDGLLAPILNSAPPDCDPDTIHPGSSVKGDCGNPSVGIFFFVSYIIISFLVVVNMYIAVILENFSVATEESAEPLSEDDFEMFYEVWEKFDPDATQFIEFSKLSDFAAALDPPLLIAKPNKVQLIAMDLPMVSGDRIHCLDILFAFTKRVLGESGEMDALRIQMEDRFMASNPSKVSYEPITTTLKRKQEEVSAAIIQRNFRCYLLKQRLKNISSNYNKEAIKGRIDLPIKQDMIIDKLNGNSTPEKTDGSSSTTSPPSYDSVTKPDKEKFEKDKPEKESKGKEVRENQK
T2 sequence (Q15858 whole entry): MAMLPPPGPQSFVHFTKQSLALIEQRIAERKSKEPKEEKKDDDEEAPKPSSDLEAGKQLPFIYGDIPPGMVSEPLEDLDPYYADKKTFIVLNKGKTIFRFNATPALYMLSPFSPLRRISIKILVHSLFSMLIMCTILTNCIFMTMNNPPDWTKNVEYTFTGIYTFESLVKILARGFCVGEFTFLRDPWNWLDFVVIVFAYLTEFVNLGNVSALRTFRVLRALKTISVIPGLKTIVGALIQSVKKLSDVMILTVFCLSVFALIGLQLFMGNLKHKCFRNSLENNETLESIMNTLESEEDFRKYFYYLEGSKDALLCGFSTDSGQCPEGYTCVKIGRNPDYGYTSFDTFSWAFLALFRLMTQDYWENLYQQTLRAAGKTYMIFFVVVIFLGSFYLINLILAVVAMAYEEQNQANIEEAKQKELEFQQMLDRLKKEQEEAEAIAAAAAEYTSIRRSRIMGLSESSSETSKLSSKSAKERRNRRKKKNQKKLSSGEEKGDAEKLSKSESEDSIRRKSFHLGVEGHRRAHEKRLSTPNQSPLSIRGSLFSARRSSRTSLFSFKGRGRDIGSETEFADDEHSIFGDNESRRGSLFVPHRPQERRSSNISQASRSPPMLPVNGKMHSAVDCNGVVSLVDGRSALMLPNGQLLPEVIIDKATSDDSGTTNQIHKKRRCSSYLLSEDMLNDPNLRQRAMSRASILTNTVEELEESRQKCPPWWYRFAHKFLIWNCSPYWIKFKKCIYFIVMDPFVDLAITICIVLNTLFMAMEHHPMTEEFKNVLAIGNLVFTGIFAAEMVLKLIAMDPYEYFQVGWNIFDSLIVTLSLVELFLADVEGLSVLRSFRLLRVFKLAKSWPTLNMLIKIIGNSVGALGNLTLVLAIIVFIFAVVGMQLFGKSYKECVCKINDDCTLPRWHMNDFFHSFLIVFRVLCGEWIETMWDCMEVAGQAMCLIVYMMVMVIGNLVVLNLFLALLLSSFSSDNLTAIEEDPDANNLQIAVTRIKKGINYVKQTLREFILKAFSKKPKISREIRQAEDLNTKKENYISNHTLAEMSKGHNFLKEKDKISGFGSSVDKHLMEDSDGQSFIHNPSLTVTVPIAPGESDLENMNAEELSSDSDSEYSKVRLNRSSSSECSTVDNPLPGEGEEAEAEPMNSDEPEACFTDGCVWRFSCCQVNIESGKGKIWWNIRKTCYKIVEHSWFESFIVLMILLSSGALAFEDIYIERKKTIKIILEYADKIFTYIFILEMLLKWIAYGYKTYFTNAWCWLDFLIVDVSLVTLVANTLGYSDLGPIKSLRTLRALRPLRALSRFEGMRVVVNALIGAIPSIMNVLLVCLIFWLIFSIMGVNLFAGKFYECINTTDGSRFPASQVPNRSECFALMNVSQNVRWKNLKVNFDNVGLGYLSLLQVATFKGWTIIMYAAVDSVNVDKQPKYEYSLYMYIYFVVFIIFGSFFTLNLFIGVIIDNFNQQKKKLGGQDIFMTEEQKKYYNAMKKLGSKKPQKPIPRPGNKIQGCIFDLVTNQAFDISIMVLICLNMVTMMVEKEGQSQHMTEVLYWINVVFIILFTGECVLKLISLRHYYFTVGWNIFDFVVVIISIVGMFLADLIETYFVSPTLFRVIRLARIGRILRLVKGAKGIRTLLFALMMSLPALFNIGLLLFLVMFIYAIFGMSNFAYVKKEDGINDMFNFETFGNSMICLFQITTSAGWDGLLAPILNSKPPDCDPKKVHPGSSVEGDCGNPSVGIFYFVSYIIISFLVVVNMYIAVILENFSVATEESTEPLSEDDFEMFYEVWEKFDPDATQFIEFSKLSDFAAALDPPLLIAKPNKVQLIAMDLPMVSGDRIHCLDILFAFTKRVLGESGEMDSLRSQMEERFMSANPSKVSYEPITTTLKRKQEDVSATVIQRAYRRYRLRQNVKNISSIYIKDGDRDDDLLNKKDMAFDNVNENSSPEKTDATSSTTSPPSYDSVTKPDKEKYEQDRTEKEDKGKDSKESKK

IC50 [1] [nM] | IC50 [2] [nM] | Compound
> 10000 | > 1000 | O=S(=O)(Nc1ccccn1)c1ccc(Nc2nc(Cc3ccc(Cl)cc3)cs2)cc1 [Compound 103, 4-(4-(4-chlorobenzyl)thiazol-2-ylamino)-N-(pyridin-2-yl)benzenesulfonamide]
< 2000 | > 10000 | O=S(=O)(Nc1nccs1)c1ccc(Nc2ncc(S(=O)(=O)c3ccc(Cl)cc3)s2)cc1F [Compound 105, 4-(5-(4-chlorophenylsulfonyl)thiazol-2-ylamino)-2-fluoro-N-(thiazol-2-yl)benzenesulfonamide]
2000 to 10000 | > 1000 | CC(C)(C)c1csc(Nc2ccc(S(=O)(=O)Nc3nccs3)cn2)n1 [Compound 106, 6-(4-tert-butylthiazol-2-ylamino)-N-(thiazol-2-yl)pyridine-3-sulfonamide]
< 2000 | 2000 to 10000 | O=S(=O)(Nc1nccs1)c1ccc(Nc2nc(Cc3ccc(Cl)cc3)cs2)nc1 [Compound 107, 6-(4-(4-chlorobenzyl)thiazol-2-ylamino)-N-(thiazol-2-yl)pyridine-3-sulfonamide]
2000 to 10000 | 2000 to 10000 | Cc1cnc(NS(=O)(=O)c2ccc(Nc3nc(Cc4ccc(Cl)cc4)cs3)cc2F)s1 [Compound 108, 4-(4-(4-chlorobenzyl)thiazol-2-ylamino)-2-fluoro-N-(5-methylthiazol-2-yl)benzenesulfonamide]
< 2000 | 2000 to 10000 | Cc1csc(NS(=O)(=O)c2ccc(Nc3nc(Cc4ccc(Cl)cc4)cs3)cc2F)n1 [Compound 109, 4-(4-(4-chlorobenzyl)thiazol-2-ylamino)-2-fluoro-N-(4-methylthiazol-2-yl)benzenesulfonamide]
< 2000 | > 10000 | CC(C)(C)n1nc(Cc2ccc(Cl)cc2)cc1Nc1ccc(S(=O)(=O)Nc2ccccn2)cc1 [Compound 110, 4-(1-tert-butyl-3-(4-chlorobenzyl)-1H-pyrazol-5-ylamino)-N-(pyridin-2-yl)benzenesulfonamide]
< 2000 | 2000 to 10000 | CC(C)(C)n1nc(Cc2ccc(Cl)cc2)cc1Nc1ccc(S(=O)(=O)Nc2nncs2)cc1 [Compound 111, 4-(1-tert-butyl-3-(4-chlorobenzyl)-1H-pyrazol-5-ylamino)-N-(1,3,4-thiadiazol-2-yl)benzenesulfonamide]
> 1000 | > 1000 | NC(=O)c1cnn(-c2ccc(F)c(Cl)c2)c1Nc1ccc(S(=O)(=O)Nc2nccs2)cc1 [Compound 112, 1-(3-chloro-4-fluorophenyl)-5-(4-(N-thiazol-2-ylsulfamoyl)phenylamino)-1H-pyrazole-4-carboxamide]
2000 to 10000 | > 1000 | CC(C)(C)c1csc(Nc2ccc(S(=O)(=O)Nc3nccs3)c(C#N)c2)n1 [Compound 113, 4-(4-tert-butylthiazol-2-ylamino)-2-cyano-N-(thiazol-2-yl)benzenesulfonamide]
< 2000 | < 2000 | O=S(=O)(Nc1nccs1)c1ccc(Nc2cc(Cc3ccc(Cl)cc3)n[nH]2)cc1F [Compound 115, 4-(3-(4-chlorobenzyl)-1H-pyrazol-5-ylamino)-2-fluoro-N-(thiazol-2-yl)benzenesulfonamide]
< 2000 | < 2000 | Cn1nc(C2(c3ccc(Cl)cc3)CC2)cc1Nc1ccc(S(=O)(=O)Nc2nccs2)cc1 [Compound 129, 4-(3-(1-(4-chlorophenyl)cyclopropyl)-1-methyl-1H-pyrazol-5-ylamino)-N-(thiazol-2-yl)benzenesulfonamide]
< 2000 | 2000 to 10000 | O=S(=O)(Nc1nccs1)c1ccc(Nc2cnn(CC(F)(F)F)c2)cc1F [Compound 130, 2-fluoro-N-(thiazol-2-yl)-4-(1-(2,2,2-trifluoroethyl)-1H-pyrazol-4-ylamino)benzenesulfonamide]
< 2000 | < 2000 | Cn1nc(CC2CCCCC2)cc1Nc1ccc(S(=O)(=O)Nc2nccs2)c(F)c1 [Compound 133, 4-(3-(cyclohexylmethyl)-1-methyl-1H-pyrazol-5-ylamino)-2-fluoro-N-(thiazol-2-yl)benzenesulfonamide]
< 2000 | < 2000 | Cn1nc(CC2CCCCC2)cc1Nc1ccc(S(=O)(=O)Nc2nccs2)c(O)c1 [Compound 134, 4-(3-(cyclohexylmethyl)-1-methyl-1H-pyrazol-5-ylamino)-2-hydroxy-N-(thiazol-2-yl)benzenesulfonamide]
< 2000 | < 2000 | CC(C)c1cc(Nc2ccc(S(=O)(=O)Nc3nccs3)c(F)c2)n(-c2ccccc2)n1 [Compound 145, 2-fluoro-4-(3-isopropyl-1-phenyl-1H-pyrazol-5-ylamino)-N-(thiazol-2-yl)benzenesulfonamide]
< 2000 | < 2000 | Cc1cc(Nc2ccc(S(=O)(=O)Nc3nccs3)c(F)c2)n(-c2ccccc2C)n1 [Compound 146, 2-fluoro-4-(3-methyl-1-o-tolyl-1H-pyrazol-5-ylamino)-N-(thiazol-2-yl)benzenesulfonamide]

IC50 [1] [nM] | IC50 [2] [nM] | Compound
< 2000 | < 2000 | Cc1ccc(-n2nc(C)cc2Nc2ccc(S(=O)(=O)Nc3nccs3)c(F)c2)cc1 [Compound 147, 2-fluoro-4-(3-methyl-1-p-tolyl-1H-pyrazol-5-ylamino)-N-(thiazol-2-yl)benzenesulfonamide]
< 2000 | < 2000 | Cc1cc(Nc2ccc(S(=O)(=O)Nc3nccs3)c(F)c2)n(-c2ccccc2Cl)n1 [Compound 149, 4-(1-(2-chlorophenyl)-3-methyl-1H-pyrazol-5-ylamino)-2-fluoro-N-(thiazol-2-yl)benzenesulfonamide]
< 2000 | < 2000 | O=S(=O)(Nc1nccs1)c1ccc(Nc2cnn(Cc3ccc(C(F)(F)F)cc3)c2)cc1F [Compound 150, 2-fluoro-N-(thiazol-2-yl)-4-(1-(4-(trifluoromethyl)benzyl)-1H-pyrazol-4-ylamino)benzenesulfonamide]
< 2000 | 2000 to 10000 | O=S(=O)(Nc1nccs1)c1ccc(Nc2ccnn2-c2ccccc2)cc1 [Compound 151, 4-(1-phenyl-1H-pyrazol-5-ylamino)-N-(thiazol-2-yl)benzenesulfonamide]
< 2000 | < 2000 | Cc1cc(Nc2ccc(S(=O)(=O)Nc3nccs3)c(F)c2)n(-c2cccc(Cl)c2)n1 [Compound 152, 4-(1-(3-chlorophenyl)-3-methyl-1H-pyrazol-5-ylamino)-2-fluoro-N-(thiazol-2-yl)benzenesulfonamide]
< 2000 | < 2000 | Cn1nc(-c2ccc(Cl)cc2)cc1Nc1ccc(S(=O)(=O)Nc2nccs2)c(F)c1 [Compound 153, 4-(3-(4-chlorophenyl)-1-methyl-1H-pyrazol-5-ylamino)-2-fluoro-N-(thiazol-2-yl)benzenesulfonamide]
< 2000 | < 2000 | O=S(=O)(Nc1nccs1)c1ccc(Nc2cc(-c3ccccc3)nn2-c2ccccc2)cc1F [Compound 154, 4-(1,3-diphenyl-1H-pyrazol-5-ylamino)-2-fluoro-N-(thiazol-2-yl)benzenesulfonamide]
< 2000 | < 2000 | NC(=O)Cn1nc(Cc2ccc(Cl)cc2)cc1Nc1ccc(S(=O)(=O)Nc2nccs2)cc1 [Compound 155, 2-(3-(4-chlorobenzyl)-5-(4-(N-thiazol-2-ylsulfamoyl)phenylamino)-1H-pyrazol-1-yl)acetamide]
< 2000 | < 2000 | CC(C)(C)c1cc(Nc2ccc(S(=O)(=O)Nc3nccs3)c(F)c2)n(-c2ccccc2)n1 [Compound 156, 4-(3-tert-butyl-1-phenyl-1H-pyrazol-5-ylamino)-2-fluoro-N-(thiazol-2-yl)benzenesulfonamide]
< 2000 | < 2000 | Cc1cc(Nc2ccc(S(=O)(=O)Nc3nccs3)c(Cl)c2)n(-c2ccccc2)n1 [Compound 161, 2-chloro-4-(3-methyl-1-phenyl-1H-pyrazol-5-ylamino)-N-(thiazol-2-yl)benzenesulfonamide]
< 2000 | < 2000 | Cc1cc(Nc2ccc(S(=O)(=O)Nc3ncc(Cl)s3)c(F)c2)n(-c2ccccc2)n1 [Compound 162, N-(5-chlorothiazol-2-yl)-2-fluoro-4-(3-methyl-1-phenyl-1H-pyrazol-5-ylamino)benzenesulfonamide]
< 2000 | < 2000 | O=S(=O)(Nc1nccs1)c1ccc(Nc2ccccc2-c2ccccc2)cc1F [Compound 172, 4-(biphenyl-2-ylamino)-2-fluoro-N-(thiazol-2-yl)benzenesulfonamide]
< 2000 | < 2000 | Cc1cc(Nc2ccc(S(=O)(=O)Nc3nccs3)c(F)c2)n(-c2ccccc2F)n1 [Compound 173, 2-fluoro-4-(1-(2-fluorophenyl)-3-methyl-1H-pyrazol-5-ylamino)-N-(thiazol-2-yl)benzenesulfonamide]
< 2000 | < 2000 | Cc1cc(Nc2ccc(S(=O)(=O)Nc3nccs3)c(F)c2)n(-c2ccc(F)cc2Cl)n1 [Compound 182, 4-(1-(2-chloro-4-fluorophenyl)-3-methyl-1H-pyrazol-5-ylamino)-2-fluoro-N-(thiazol-2-yl)benzenesulfonamide]
< 2000 | < 2000 | O=S(=O)(Nc1nccs1)c1ccc(Nc2ccn(Cc3ccc(C(F)(F)F)cc3)n2)cc1F [Compound 183, 2-fluoro-N-(thiazol-2-yl)-4-(1-(4-(trifluoromethyl)benzyl)-1H-pyrazol-3-ylamino)benzenesulfonamide]
< 2000 | < 2000 | O=S(=O)(Nc1nccs1)c1ccc(Nc2ccn(Cc3ccc(Cl)cc3)n2)c(F)c1 [Compound 184, 4-(1-(4-chlorobenzyl)-1H-pyrazol-3-ylamino)-3-fluoro-N-(thiazol-2-yl)benzenesulfonamide]
